The structures appear in SMILES notation.

Broadly, the inhibition is the relative decrease from the control value, in per cent.

This assay is described as follows: Antiinflammatory activity in rabbit neutrophils assessed as inhibition of fMLP-induced superoxide radical anion generation at 20 ug/mL. In kind it is functional. The note with it: Oryctolagus cuniculus, Neutrophil.
Regarding `C=C1CC/C=C(\C)CC[C@@H]2C(C(CC=C(C)C)OC(C)=O)=CO[C@H](OC(C)=O)[C@@H]12` (stereo partly drawn), the inhibition at 20 µg/mL was more than 90%.
Next, `C=C(C)C(CC(OC(C)=O)C1=CO[C@H](OC(C)=O)[C@H]2C(=C)CC[C@@H]3O[C@@]3(C)CC[C@H]12)OC(C)=O` (stereo partly drawn) [7,8-EPOXYZAHAVIN A]: more than 90%.
For the compound `C=C(C)C(CC(OC(C)=O)C1=CO[C@H](OC(C)=O)[C@H]2C(=C)CC/C=C(\C)CC[C@H]12)OC(C)=O` (stereo partly drawn) [ZAHAVIN A], the inhibition at 20 µg/mL was more than 90%.

The record behind these values is ChEMBL document CHEMBL1158333, “New diterpenes from the South African soft coral Eleutherobia aurea” (1997).
